Laboratory results as given in patent publication US20150175655A1 (priority 2012, published 2015).
Read-outs that look alike come from different tables or passages of the source.

Legend:
[1] = tested on: genotype 3a stable HCV replicon (S52 strain) in Huh-7-derived cells; test: Stable subgenomic HCV replicon EC50, genotype 3a (Renilla luciferase); type: cell-based; conditions: Hepatitis C virus, 72 h, read-out: EC50 3A RLUC
Procedure: (§1) Antiviral potency (EC50) was determined in both stable subgenomic HCV replicon cell lines and transient-transfected HCV replicon cells. The term half maximal effective concentration (EC50) refers to the concentration of a drug which induces a response halfway between the baseline and maximum after the exposure time specified below.
(§2) Stable subgenomic HCV replicons for genotype 1a, 1 b, 2a, 3a, and 4a were established in Huh-7-derived cells as described by Lohmann et al (Lohmann V, Korner F, Koch J, et al Replication of subgenomic hepatitis C virus RNAs in a hepatoma cell line. Science 1999; 285:119-3). Each stable cell line contains a bicistronic HCV replicon that encodes a humanized Renilla luciferase (hRLuc) reporter gene fused to a selectable neomycin-resistance gene, followed by an EMCV IRES and the NS3-NS5B coding region of HCV. […] Luciferase activity was measured as a marker for intracellular HCV replication levels.
(§3) The genotype 1a stable replicon was derived from the H77 HCV strain and contained adaptive mutations P1496L and S2204I. The genotype 1 b stable replicon was derived from the Cont HCV strain and contained adaptive mutations E1202G, T1280I, and K1846T. […] The genotype 3a stable replicon was derived from the S52 HCV strain and contained adaptive mutations P1121 L, A1198T and S2210I (equivalent to S2204I in genotype 1). The genotype 4a stable replicon was derived from the ED43 HCV strain and contained adaptive mutations Q1691R and S2204I. All replicon cell lines were propagated in Huh-7-derived cells and maintained in Dulbecco's modified Eagle's Medium (DMEM) supplemented with 10% fetal bovine serum (FBS) and 0.5 mg/mL G418.
(§4) To perform EC50 assays, cells from each HCV replicon were dispensed into 384-well plates. Compounds were dissolved in DMSO at a concentration of 10 mM and diluted in DMSO using an automated pipetting instrument. Three-fold serially diluted compounds were directly added to the cells using an automated instrument. […] Seventy-two hours later, cells were lysed and Renilla luciferase activity were quantified as recommended by the manufacturer (Promega-Madison, Wis.). Non-linear regression was performed to calculate EC50 values.

[2] = tested on: genotype 1a stable HCV replicon (H77 strain) in Huh-7-derived cells; test: Stable subgenomic HCV replicon EC50, genotype 1a (Renilla luciferase); type: cell-based; conditions: Hepatitis C virus, stable replicon genotype 1a, 72 h, read-out: EC50 1A RLUC
Procedure: as §1, §2, §3, §4

[3] = tested on: genotype 1b stable HCV replicon in Huh-7-derived cells; test: Stable subgenomic HCV replicon EC50, genotype 1b (Renilla luciferase); type: cell-based; conditions: Hepatitis C virus, stable replicon genotype 1b, 72 h, read-out: EC50 1B RLUC
Procedure: as §1, §2, §3, §4

[4] = tested on: genotype 2a stable HCV replicon (JFH-1 strain) in Huh-7-derived cells; test: Stable subgenomic HCV replicon EC50, genotype 2a (Renilla luciferase); type: cell-based; conditions: Hepatitis C virus, stable replicon genotype 2a, 72 h, read-out: EC50 2A RLUC
Procedure: as §1, §2, §3, §4

[5] = tested on: genotype 4a stable HCV replicon (ED43 strain) in Huh-7-derived cells; test: Stable subgenomic HCV replicon EC50, genotype 4a (Renilla luciferase); type: cell-based; conditions: Hepatitis C virus, 72 h, read-out: EC50 4A RLUC
Procedure: as §1, §2, §3, §4

[6] = tested on: genotype 1a (H77) wild-type transient HCV replicon in Huh-7-derived cells; test: Transient-transfected HCV replicon EC50, genotype 1a wild type; type: cell-based; conditions: Hepatitis C virus; transient-transfected replicon genotype 1a wild type, 72 h; read-out: EC50 1A WT
[7] = tested on: genotype 1a transient HCV replicon, NS3/4a protease inhibitor resistant variant R155K, in Huh-7-derived cells; test: Transient-transfected HCV replicon EC50, genotype 1a R155K; type: cell-based; conditions: Hepatitis C virus, 72 h, read-out: EC50 1A R155K
[8] = tested on: genotype 1b (Con1) wild-type transient HCV replicon in Huh-7-derived cells; test: Transient-transfected HCV replicon EC50, genotype 1b wild type; type: cell-based; conditions: Hepatitis C virus; transient-transfected replicon genotype 1b wild type, 72 h; read-out: EC50 1B WT
[9] = tested on: genotype 1b transient HCV replicon, NS3/4a protease inhibitor resistant variant D168A, in Huh-7-derived cells; test: Transient-transfected HCV replicon EC50, genotype 1b D168A; type: cell-based; conditions: Hepatitis C virus, 72 h, read-out: EC50 1B D168A
[10] = rcm bond, Zhan 1B, DCE

COc1ccc2nc3c(nc2c1)O[C@H]1CN(C(=O)[C@H](C(C)(C)C)NC(=O)O[C@@H]2CCN(C(C)=O)C2CCCCC3)[C@H](C(=O)N[C@]2(C(=O)NS(=O)(=O)C3(C)CC3)C[C@H]2C(F)F)[C@@H]1C (stereo partly drawn) [Example 80, (3aR,7S,10S,11S,12R)-1-acetyl-7-tert-butyl-N-[(1R,2R)-2-(difluoromethyl)-1-{[(1-methylcyclopropyl)sulfonyl]carbamoyl}cyclopropyl]-16-methoxy-11-methyl-5,8-dioxo-1,2,3,3a,5,6,7,8,11,12,20,21,22,23,24,24a-hexadecahydro-10H-9,12-methanopyrrolo[2′,3′:18,19][1,10,3,6]dioxadiazacyclononadecino[11,12-b]quinoxaline-10-carboxamide]
EC50 [1]: ≥ 44400 nM

CC[C@@H]1[C@@H]2CN(C(=O)[C@H](C(C)(C)C)NC(=O)O[C@]3(C(F)(F)F)CCC[C@H]3CCCCCc3nc4ccc(OC)cc4nc3O2)[C@@H]1C(=O)N[C@]1(C(=O)NS(=O)(=O)C2CC2)C[C@H]1C(F)F [Example 11, (7S,10S,11S,12R)-7-tert-butyl-N-[(1R,2R)-1-[(cyclopropylsulfonyl)carbamoyl]-2-(difluoromethyl)cyclopropyl]-11-ethyl-16-methoxy-5,8-dioxo-3aR-(trifluoromethyl)-1,2,3,3a,5,6,7,8,11,12,20,21,22,23,24,24a-hexadecahydro-10H-9,12-methanocyclopenta[18,19][1,10,3,6]dioxadiazacyclononadecino[11,12-b]quinoxaline-10-carboxamide]
EC50 [2]: 28 nM
EC50 [3]: 17 nM
EC50 [4]: 34 nM
EC50 [1]: 1160 nM
EC50 [5]: 19 nM
EC50 [6]: 20 nM
EC50 [7]: 159 nM
EC50 [8]: 9.4 nM
EC50 [9]: 605 nM

CC[C@@H]1[C@@H]2CN(C(=O)[C@H](C(C)(C)C)NC(=O)OC3(C(F)(F)F)CCCC3CCCC=Cc3nc4ccc(OC)cc4nc3O2)[C@@H]1C(=O)OC(C)(C)C (stereo partly drawn)
ring closure, yield of all isomers ([10]; from C=CCCCC1CCCC1(OC(=O)N[C@H](C(=O)N1C[C@H](Oc2nc3cc(OC)ccc3nc2C=C)[C@@H](CC)[C@H]1C(=O)OC(C)(C)C)C(C)(C)C)C(F)(F)F, 5.0 mM, 100.0 °C, 0.5 h): 84.7%

COc1ccc2nc3c(nc2c1)O[C@H]1CN(C(=O)[C@H](C(C)(C)C)NC(=O)O[C@@H]2C[C@@H]4C[C@@H]4[C@H]2CCCC=C3)[C@H](C(=O)OC(C)(C)C)[C@@H]1C
ring closure, yield of all isomers ([10]; from C=CCCCC1C(OC(=O)N[C@H](C(=O)N2C[C@H](Oc3nc4cc(OC)ccc4nc3C=C)[C@@H](C)[C@H]2C(=O)OC(C)(C)C)C(C)(C)C)CC2CC21, 2.91 mM, 85.0 °C, 1.75 h): 33.1%

CC[C@@H]1[C@@H]2CN(C(=O)[C@H](C(C)(C)C)NC(=O)O[C@]3(C)CCC[C@H]3CCCC=Cc3nc4ccc(OC)cc4nc3O2)[C@@H]1C(=O)OC
ring closure, yield of all isomers ([10]; from C=CCCC[C@@H]1CCC[C@@]1(C)OC(=O)N[C@H](C(=O)N1C[C@H](Oc2nc3cc(OC)ccc3nc2C=C)[C@@H](CC)[C@H]1C(=O)OC)C(C)(C)C, 19.9 mM, 80.0 °C, […]): 77.2%

COc1ccc2nc3c(nc2c1)O[C@H]1CN(C(=O)[C@H](C(C)(C)C)NC(=O)O[C@@H]2CCC[C@H]2CCCC=C3)[C@H](C(=O)OC(C)(C)C)[C@@H]1C
ring closure, yield of all isomers ([10]; from C=CCCC[C@@H]1CCC[C@H]1OC(=O)N[C@H](C(=O)N1C[C@H](Oc2nc3cc(OC)ccc3nc2C=C)[C@@H](C)[C@H]1C(=O)OC(C)(C)C)C(C)(C)C, 4.97 mM, 83.0 °C, […]): 78.5%

COc1ccc2nc3c(nc2c1)O[C@H]1CN(C(=O)[C@H](C2(C)CCCC2)NC(=O)O[C@@H]2C[C@H]2CCCC=C3)[C@H](C(=O)OC(C)(C)C)[C@@H]1C
ring closure, yield of all isomers ([10]; from C=CCCC[C@@H]1C[C@H]1OC(=O)N[C@H](C(=O)N1C[C@H](Oc2nc3cc(OC)ccc3nc2C=C)[C@@H](C)[C@H]1C(=O)OC(C)(C)C)C1(C)CCCC1, 5.03 mM, 83.0 °C, […]): 78%

CC[C@@H]1[C@@H]2CN(C(=O)[C@H](C(C)(C)C)NC(=O)O[C@@]3(C(F)(F)F)CCC[C@H]3CCCCCc3nc4ccc(OC)cc4nc3O2)[C@@H]1C(=O)N[C@]1(C(=O)NS(=O)(=O)C2CC2)C[C@H]1C(F)F [Example 12, (7S,10S,11S,12R)-7-tert-butyl-N-[(1R,2R)-1-[(cyclopropylsulfonyl)carbamoyl]-2-(difluoromethyl)cyclopropyl]-11-ethyl-16-methoxy-5,8-dioxo-3a5-(trifluoromethyl)-1,2,3,3a,5,6,7,8,11,12,20,21,22,23,24,24a-hexadecahydro-10H-9,12-methanocyclopenta[18,19][1,10,3,6]dioxadiazacyclononadecino[11,12-b]quinoxaline-10-carboxamide]
EC50 [2]: 34 nM
EC50 [3]: 18 nM
EC50 [4]: 25 nM
EC50 [1]: 2010 nM
EC50 [5]: 21 nM
EC50 [6]: 14 nM
EC50 [7]: 283 nM
EC50 [8]: 5.7 nM
EC50 [9]: 640 nM
